System: Plasmodium falciparum
Experiment: GSK_TCMDC: Inhibition of Plasmodium falciparum 3D7 in whole erythrocytes, using parasite LDH activity as an index of growth.
Format: functional, organism-based
Conditions: Plasmodium falciparum, 3D7

| SMILES | XC50 |
| --- | --- |
| CCNc1cc(C)nc(Nc2ccc(NC(=O)c3ccccc3Cl)cc2)n1 | 1010 nM |
| N=C(N)Nc1ccc(NC(=O)Nc2ccc(NC(=N)N)cc2)cc1 | 386 nM |
| CCOc1ccccc1C=CC(=O)Nc1ccc2nc(N3CCN(C)CC3)cc(C)c2c1 | 273 nM |
| Cc1cc(NC2CCN(CC3CCCCC3)C2)nc(Nc2ccc(Cl)cc2)n1 (stereo not given) | 404 nM |
| COc1ccc(C=Cc2ccc(-c3c(C)[nH]c(C)c(Cl)c3=O)cc2)cc1OC | 283 nM |
| Cc1sc2ncnc(Sc3nnc(N)s3)c2c1C | 399 nM |
| CCNc1cc(C(=O)N[C@@H](Cc2ccccc2)[C@H](O)CNCc2cccc(-c3cncnc3)c2)cc(N2CCCC2=O)c1 | 663 nM |
| O=C(Nc1cccc([N+](=O)[O-])c1)N(Cc1ccc(Cl)c(Cl)c1)C1CCNCC1 | 719 nM |
| CCCCCCCN1CCC(CCNc2ccnc3ccc(OC)cc23)CC1 | 955 nM |
| CCN(CCCN1CCCCC1)c1cc(C)nc(Nc2ccc(Br)cc2F)n1 | 548 nM |
| NC1CCN(Cc2ccc(-c3ccc(-c4nc5ccccc5[nH]4)cc3)cc2)C1 (stereo not given) | 147 nM |
| CC(=O)Nc1nnc(SCc2c(C)cc(C(C)(C)C)cc2C)s1 | 704 nM |
| Cc1ccccc1C1CCN(C2CCC(NC(=O)/C=C/c3ccc4c(c3)OC(F)(F)O4)CC2)CC1 (stereo not given) | 666 nM |
| Fc1ccc2nc(Nc3nc(-c4ccccn4)cs3)sc2c1 | 560 nM |
| CCNc1cc(C(=O)N[C@@H](Cc2ccccc2)[C@H](O)CNC2(CCC(C)C)CC2)cc(N2CCCCS2(=O)=O)c1 | 1080 nM |
| CC1(C)N=C(N)N=C(N)N1OCc1ccc2ccccc2c1 | 3.2 nM |
| COc1ccc(C(=O)CCC(=O)N(Cc2ccc(-c3ccc(CNCCc4ccc(S(C)(=O)=O)cc4)cn3)cc2)C(C)CN(C)C)cc1F (stereo not given) | 650 nM |
| N#Cc1ccc(-c2cnc3ccc(NCc4ccc(S(N)(=O)=O)cc4)nn23)cc1 | 785 nM |
| CCOc1cc(C)ccc1C1CCN(CCCCNC(=O)c2coc(-c3ccc(Cl)cc3)c2)CC1 | 914 nM |
| CCCCCCCCCn1c(NCc2cc(Cl)ccc2O)nc2ccccc21 | 825 nM |

| SMILES | XC50 |
| --- | --- |
| CN(C)Cc1c(O)ccc2[nH]c(-c3ccc(F)cc3F)nc12 | 1300 nM |
| COc1cc(OC)cc(-c2nnc(Sc3ccc(C#N)c([N+](=O)[O-])c3)n2C)c1 | 937 nM |
| O=c1[nH]ccc2nc(N[C@@H]3CCNC3)nc(Nc3ccc4c(c3)S(=O)(=O)CC4)c12 | 377 nM |
| CC(CCNc1c2ccccc2nc2ccccc12)N1CCN(C)CC1 (stereo not given) | 803 nM |
| O=C1C2C3SC(c4c3ccc3ccccc43)C2C(=O)N1c1ccccc1 (stereo not given) | 770 nM |
| COc1cc(C(=O)NC2CC(C)(C)N(C)C(C)(C)C2)ccc1-c1cc2cc(Cl)c(Cl)cc2[nH]1 | 1140 nM |
| NS(=O)(=O)c1cccc(Nc2nccc(-c3cnn4ncccc34)n2)c1 | 661 nM |
| O=S(=O)(NC1CCN(c2ccnc3cc(Cl)ccc23)C1)c1cccc(F)c1 (stereo not given) | 486 nM |
| CCCC(C)NC(=O)[C@H](CC1CCCCC1)NC(=O)c1ccc(O)c(-c2ccc(OC)cc2)c1 (stereo not given in full) | 1130 nM |
| COc1ccc2[nH]cc(C3CCN(CCCCNC(=O)c4ccc(NC(=O)c5ccc(Cl)cc5)cc4)CC3)c2c1 | 1020 nM |
| CNCCNCc1ccc(-c2ccc(-c3nc4cc(F)ccc4[nH]3)s2)cc1 | 772 nM |
| Cc1cccc2nc(-c3ccc(-c4cccc(NC(=O)Nc5ccc(Cl)c(Cl)c5)c4)s3)[nH]c12 | 594 nM |
| CCN1CCc2nc3ccccc3c(C(=O)Nc3ccc(C#N)cc3)c2C1 | 780 nM |
| CCCCCCc1ncc(-c2cc3cc(O)c(-c4ccccc4)cc3oc2=O)s1 | 1240 nM |
| COc1ccc2nccc(N(C)CC3(O)CCN(CCc4ccc5c(c4)NC(=O)CS5)CC3)c2n1 | 136 nM |
| Cn1nc(-c2ccc(NC(=O)Nc3ccc4ccccc4c3)c(F)c2)c2cnc(NCCN3CCOCC3)nc21 | 1020 nM |
| NCCCNc1nc(Nc2cccc(C(N)=O)c2)c2c(=O)[nH]ccc2n1 | 594 nM |
| CC1CN(c2cnn(C/C=C/c3ccc(NC(=O)c4ccc([N+](=O)[O-])cc4)cc3)c(=O)c2Cl)CC(C)N1 (stereo not given) | 700 nM |
| CC(=O)NC1=NC(C)(C)N(OCc2ccc(Cl)c(Cl)c2)C(NC(C)=O)=N1 | 3.2 nM |
| CN(C)c1cc2c(Nc3ccc4nc(Cc5ccccc5)[nH]c4c3)ncnc2cn1 [GW301888X] | 1140 nM |

Source: ChEMBL document CHEMBL1157539, “Thousands of chemical starting points for antimalarial lead identification” (Nature, 2010)
